According to patent publication US9963466B2, “Substituted 5-membered heterocyclic analogs as protease activated receptor 4 (PAR-4) antagonists” (Vanderbilt University, priority 2016, dated 2018):
Bridge positions count the residues as written; N and C are the ends. Square brackets hold non-standard residues; d marks the D form. Ends that are not written are not given here. Peptide text beside a SMILES is read from it. * marks the point of attachment. Palmitoyl = CCCCCCCCCCCCCCCC(=O)*; hArg = N=C(N)NCCCC[C@H](N)C(=O)O; Mpa = O=C(O)CCS

Assays:
[1] = biological target: T1, protease-activated receptor type 4 (PAR4) (Homo sapiens, UniProt Q96RI0); conditions: abstract of Lee et al. 2001; cited from earlier work
T1 construct: host or cells: platelets
T1 sequence (Q96RI0 18-385): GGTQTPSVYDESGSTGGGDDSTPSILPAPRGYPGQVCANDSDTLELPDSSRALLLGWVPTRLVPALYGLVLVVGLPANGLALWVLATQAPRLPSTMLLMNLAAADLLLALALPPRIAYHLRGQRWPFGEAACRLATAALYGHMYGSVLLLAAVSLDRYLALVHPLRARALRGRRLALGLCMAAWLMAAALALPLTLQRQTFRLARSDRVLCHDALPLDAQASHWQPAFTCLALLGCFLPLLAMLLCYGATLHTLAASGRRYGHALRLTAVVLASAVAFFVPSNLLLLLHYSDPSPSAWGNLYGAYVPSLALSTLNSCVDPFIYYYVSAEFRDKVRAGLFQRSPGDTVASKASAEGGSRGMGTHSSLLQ

PAR4 [2] = biological target: T2, PAR4 (Homo sapiens, UniProt Q96RI0); assay: PAC-1 binding assay, washed platelets stimulated with PAR-4-AP (flow cytometry); assay type: cell-based; conditions: PAR-4-AP stimulation, dose response curve
T2 construct: 60 μL of washed platelets (Tyrodes buffer containing 0.1% BSA); endogenous in cells; host or cells: washed platelets
T2 sequence (Q96RI0 18-385): T1 sequence (Q96RI0 18-385)
Description: (§1) PAC-1 Binding assay: 60 μL of washed platelets (Tyrodes buffer containing 0.1% BSA) at a concentration of 0.15×10^8 platelets/mL were added to 5 mL round bottom polystyrene tubes (BD, Franklin Lakes, N.J.). FITC conjugated PAC-1 (BD Biosciences, San Jose, Calif.) antibody was diluted (to the manufacturers recommended concentration) in Tyrode's buffer containing 0.1% BSA. 40 μL of diluted antibody was added to the platelets and allowed to incubate for 5 minutes. Platelets were pre-treated with indicated concentrations of antagonist or DMSO control for 5 minutes followed by addition of PAR-1-AP (GL Biochem, Shanghai, China) or PAR-4-AP for 10 minutes. Platelet activity was quenched by the addition ice cold 1.5% paraformaldehyde followed by dilution in 1× phosphate buffered saline. The final DMSO concentration was 0.5%. Platelets were stored up to 18 hours at 4° C. before flow cytometric analysis. Analysis was carried out on a BD FACS Canto II (Franklin Lakes, N.J.). Fluorescent intensity was determined for 100,000 events within the platelet gate. Data was collected and analyzed via FACS DiVa software. Flow cytometric data analysis was conducted by the following method. The DMSO-vehicle treated control was subtracted from each data point. 100% response for PAR-4-AP was determined for each individual as the DMSO treated control stimulated with either 200 μM PAR-4-AP, or 20 μM PAR-1-AP. Data was plotted in GraphPad PRISM v.5.0. For compounds with a notable reduction in PAC-1 binding response, a dose response curves and subsequent IC50 values were generated using the inhibitory sigmoidal dose response ‘variable slope’ parameter. PAR-4 results were plotted as mean±SEM.

PAR4 [3] = biological target: T2, PAR4; assay: PAC-1 binding assay, platelets stimulated with γ-thrombin; assay type: cell-based; conditions: stimulation with 316 nM γ-thrombin; compound concentration not given
Text: Gamma-thrombin is a proteolytic product of alpha-thrombin cleavage by a serine protease. Cleavage results in the disruption of exosite I which interacts directly with the hirudin-like domain of its primary substrates fibrinogen and protease-activated receptor 1 (PAR1). As a result, gamma-thrombin selectively cleaves PAR4 in the nanomolar range, leaving PAR1 intact. See Soslau, G., Class, R., Morgan, D. A., Foster, C., Lord, S. T., Marchese, P., and Ruggeri, Z. M. (2001) Unique pathway of thrombin-induced platelet aggregation mediated by glycoprotein Ib, The Journal of biological chemistry 276, 21173-21183. Gamma-thrombin (Enzyme Research Laboratories, South Bend, Ind.) is produced by trypsin-sepharose cleavage of alpha-thrombin. To neutralize alpha-thrombin contamination, stock solutions of gamma-thrombin are preincubated with 1 unit/mL hirudin prior 100 fold dilution into the sample for platelet stimulation. This concentration of hirudin is capable of abolishing alpha-thrombin activity with no effect on the activity of gamma-thrombin. See Soslau, G., Goldenberg, S. J., Class, R., and Jameson, B. (2004) Differential activation and inhibition of human platelet thrombin receptors by structurally distinct alpha-, beta- and gamma-thrombin, Platelets 15, 155-166. Single point screens and concentration response curves are conducted with 316 nanomolar or 100 nanomolar gamma-thrombin using PAC1 and CD61p binding.
as §1

PAR1 [4] = biological target: T3, PAR1 (Homo sapiens, UniProt P25116); conditions: cited from earlier work
T3 construct: host or cells: patients, in vivo
T3 sequence (P25116 22-425): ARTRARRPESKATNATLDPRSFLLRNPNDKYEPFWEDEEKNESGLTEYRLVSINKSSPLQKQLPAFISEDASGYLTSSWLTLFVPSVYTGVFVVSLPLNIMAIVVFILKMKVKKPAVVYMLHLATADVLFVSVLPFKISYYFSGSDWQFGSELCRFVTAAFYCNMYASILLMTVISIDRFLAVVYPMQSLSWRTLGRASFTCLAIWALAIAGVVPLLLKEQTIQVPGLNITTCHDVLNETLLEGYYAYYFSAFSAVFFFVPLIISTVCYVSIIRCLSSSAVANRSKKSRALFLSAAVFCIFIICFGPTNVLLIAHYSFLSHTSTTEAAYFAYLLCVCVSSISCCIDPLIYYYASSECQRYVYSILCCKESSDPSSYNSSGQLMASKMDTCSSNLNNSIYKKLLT

PAR1 [5] = biological target: T3, PAR1; conditions: cited from earlier work; remark: listed apart in the source
influenza viruses = conditions: mice treated with GPIIbIIIa antagonist; cited from earlier work
PAR4 [6] = biological target: T4, PAR4 (Rattus norvegicus, UniProt Q920E0); conditions: rat hindpaw, carrageenan; cited from earlier work
T4 construct: host or cells: rat, in vivo
T4 sequence (Q920E0 17-395): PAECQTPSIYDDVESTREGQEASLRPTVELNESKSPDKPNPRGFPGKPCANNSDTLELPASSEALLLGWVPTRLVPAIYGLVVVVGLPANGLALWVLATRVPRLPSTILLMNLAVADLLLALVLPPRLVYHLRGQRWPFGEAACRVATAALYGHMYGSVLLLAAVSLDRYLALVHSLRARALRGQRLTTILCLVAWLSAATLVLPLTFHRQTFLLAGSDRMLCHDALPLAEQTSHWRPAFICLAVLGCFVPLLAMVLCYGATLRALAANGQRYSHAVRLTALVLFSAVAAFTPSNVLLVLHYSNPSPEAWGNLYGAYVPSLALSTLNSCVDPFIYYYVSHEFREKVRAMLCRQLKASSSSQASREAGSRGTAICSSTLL

PAR4 [7] = biological target: T4, PAR4; conditions: rat myocardial ischemia/reperfusion; cited from earlier work
PAR4 [8] = biological target: T5, PAR4 (Mus musculus, UniProt O88634); conditions: cited from earlier work
T5 construct: PAR4-AP, or Trypsin injected pleural cavities of mice; host or cells: mouse, in vivo
T5 sequence (O88634 17-396): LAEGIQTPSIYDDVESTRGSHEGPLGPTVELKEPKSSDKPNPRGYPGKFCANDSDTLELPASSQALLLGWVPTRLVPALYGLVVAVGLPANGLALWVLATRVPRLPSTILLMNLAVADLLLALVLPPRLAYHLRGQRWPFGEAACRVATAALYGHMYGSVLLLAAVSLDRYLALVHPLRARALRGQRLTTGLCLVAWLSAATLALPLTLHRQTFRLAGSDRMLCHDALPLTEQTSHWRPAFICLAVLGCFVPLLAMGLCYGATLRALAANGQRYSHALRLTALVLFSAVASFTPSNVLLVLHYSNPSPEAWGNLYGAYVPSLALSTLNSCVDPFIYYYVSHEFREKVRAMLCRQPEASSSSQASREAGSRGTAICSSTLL

[9] = non-ST-segment ACS patients undergoing CABG
[10] = non-ST-segment elevation ACS patients
[11] = patients with myocardial infarction, added to standard anti-platelet therapy
[12] = patients with peripheral artery disease
[13] = patients with prior ischemic stroke, added to standard of care

Molecule: CCOC(=O)c1ccc(-c2nn(Cc3ccccc3)c3ccccc23)cc1
- inhibition of PAR4-dependent platelet activation [1]: selective and potent inhibitor

Molecule: COC(=O)c1[nH]c2ccc(OC(F)(F)F)cc2c1-c1cn2nc(OC)sc2n1 [Example B1, Methyl 3-(2-methoxyimidazo[2,1-b][1,3,4]thiadiazol-6-yl)-5-(trifluoromethoxy)-1H-indole-2-carboxylate]
- IC50 (PAR4 [2]): 2110 nM
- γ-thrombin % Max PAC-1 binding (316 nM) (PAR4 [3]): 100%

Molecule: COc1nn2cc(-c3cc(-c4ccc(Cl)cc4)no3)nc2s1 [Example B2]
- IC50 (PAR4 [2]): 1930 nM
- γ-thrombin % Max PAC-1 binding (316 nM) (PAR4 [3]): 94%

Molecule: COc1nn2cc(-c3csc4ccccc34)nc2s1 [Example B3]
- IC50 (PAR4 [2]): 458 nM
- γ-thrombin % Max PAC-1 binding (316 nM) (PAR4 [3]): 99%

Molecule: COc1nn2cc(-c3c(-c4ccccc4)noc3C)nc2s1 [Example B4]
- γ-thrombin % Max PAC-1 binding (316 nM) (PAR4 [3]): 93%

Molecule: COc1nn2cc(-c3cnn(-c4ccccc4)c3C)nc2s1 [Example B5]
- IC50 (PAR4 [2]): 1530 nM
- γ-thrombin % Max PAC-1 binding (316 nM) (PAR4 [3]): 95%

Molecule: COc1nn2cc(-c3sc(-c4ccccc4)nc3C)nc2s1 [Example B6]
- IC50 (PAR4 [2]): 69.8 nM
- γ-thrombin % Max PAC-1 binding (316 nM) (PAR4 [3]): 92%

Molecule: COc1nn2cc(-c3nccs3)nc2s1 [Example B7]
- γ-thrombin % Max PAC-1 binding (316 nM) (PAR4 [3]): 98%

Molecule: COc1nn2cc(-c3ccc(-c4ccccc4)s3)nc2s1 [Example B8, 2-Methoxy-6-(5-phenylthiophen-2-yl)imidazo[2,1-b][1,3,4]thiadiazole]
- IC50 (PAR4 [2]): 7.46 nM
- γ-thrombin % Max PAC-1 binding (316 nM) (PAR4 [3]): 78%

Molecule: CCOC(=O)N[C@@H]1CC[C@@H]2[C@@H](C1)C[C@H]1C(=O)O[C@H](C)[C@H]1[C@H]2/C=C/c1ccc(-c2cccc(F)c2)cn1 [Vorapaxar]
- ischemic events (PAR1 [4]; [9]): significant reduction
- major CABG-related bleeding (PAR1 [4]; [9]): no significant increase
- primary composite endpoint (PAR1 [4]; [10]): did not significantly reduce
- risk of major bleeding, including intracranial hemorrhage (PAR1 [4]; [10]): significant increase
- moderate to severe bleeding (PAR1 [5]; [11]): significant increase
- risk of cardiovascular death or ischaemic events (PAR1 [5]; [11]): reduced the risk
- limb ischemia and peripheral revascularization (PAR1 [5]; [12]): significant beneficial effects
- risk of bleeding (PAR1 [5]; [12]): increased risk of bleeding
- major vascular events (PAR1 [5]; [13]): without improvement
- risk of intracranial hemorrhage (PAR1 [5]; [13]): increased the risk

Molecule: N=C(N)NCCCC[C@@H]1NC(=O)CCSSC[C@@H](C(N)=O)NC(=O)[C@@H]2CCCN2C(=O)[C@H](Cc2c[nH]c3ccccc23)NC(=O)[C@H](CC(=O)O)NC(=O)CNC1=O [eptifibatide] ([Mpa][hArg]GDWPC-NH2; disulfide 1-7)
- protection from death caused by influenza viruses (influenza viruses): had the same effect

Molecule: palmitoly-SGRRYGHALR (Palmitoyl-SGRRYGHALR) [palmitoylated peptide named beside P4pal-10 in the carrageenan model]
- edema and granulocyte recruitment (PAR4 [6]): reduced edema and granulocyte recruitment

Molecule: trans-cinnamoyl-YPGKF [tcY-NH2]
- infarct size (PAR4 [7]): reduced infarct size
- neutrophil migration (PAR4 [8]; CXCL8, carrageenan, PAR4-AP or Trypsin injected pleural cavities of mice): inhibit neutrophil migration
- eosinophil recruitment (PAR4 [8]; after intrapleural injection of Eotaxin-1): blocks eosinophil recruitment
